Measurements taken from patent US9518000B2, “Bicyclo [2.2.1] acid GPR120 modulators” (BRISTOL-MYERS SQUIBB COMPANY, priority 2013, dated 2016).
pEC50: −log10 of the molar value.

biological target: human GPR120 (Homo sapiens (Human), UniProt Q5NUL3); assay: GPR120 pERK AlphaScreen SureFire Assay (human GPR120 pERK assay); format: cell-based; settings: CHOA12 or CHO-K1 cells stably transfected with the short form of human GPR120 receptor; phosphorylated ERK; read-out: EC50 values measured in the human GPR120 pERK assay
From the text: GPR120 activity was monitored by measuring phosphorylation of ERK (pERK), since G protein receptors are known to activate the ERK signaling cascade either directly and/or through recruitment of arrestin that serves as a scaffold for downstream signaling events.
GPR120 pERK AlphaScreen SureFire Assay
The human and mouse GPR120-mediated intracellular phosphorylated ERK assays were established using CHOA12 cells stably transfected with the short form of human or mouse GPR120 receptor. Cells were cultured in growth medium consisting of F-12 media (Invitrogen Cat. #11765) with 5% Charcoal/Dextran FBS (Invitrogen Cat. #12676-029), 500 μg/mL GENETICIN® (Life Technologies Cat. #10131-027) and 250 μg/mL Zeocin (Invitrogen Cat. #R250-01). Cells were cryo preserved at a concentration of 2×10^7 cells/mL, in 90% Charcoal/Dextran FBS and 10% DMSO, and frozen in liquid nitrogen at a low passage number.
For the pERK assay, 2×10^7 cells/mL cryopreserved human and mouse cells were thawed rapidly in a 37° C. water bath and added to a T-225 flask containing 50 mL growth medium. The flasks were placed in a tissue culture incubator overnight (37° C., 5% CO2). The next day, cells were harvested with trypsin (Gibco Cat. #25300-054), resuspended in serum-containing growth medium and counted using a Cellometer and volume adjusted to a concentration of 0.6×10^6 cells/mL. Cells were plated into 384-well clear bottom tissue culture plates (BD Cat. #353962) at 50 μL/well, for a density of 30,000 cells/well using a MULTIDROP® and incubated for 16-18 hours (overnight) at 37° C. with 5% CO2. The next day, cells were serum starved in 30 μL of F-12 media without any serum or antibiotics for 2 hours at 37° C.
Test compounds were 3-fold, 11-point serially diluted in DMSO in a REMP assay plate (Matrix Cat. #4307) by Tecan and 5 μL was transferred into an ECHO source plate (LabCyte Cat. #LC-0200). Cells were then stimulated with 50 nL of compound dilutions using ECHO liquid handler for 7 minutes at 37° C. Compounds ranged from final assay concentrations of 33.33 μM to 0.56 nM.
The media was then dumped and cells lysed with 20 μL of 1× Lysis buffer from the AlphaScreen SureFire Phospho-ERK 1/2 Kit (Perkin Elmer Cat. #6760617M). The lysis buffer was diluted 5-fold with water before use. The plate was agitated on a shaker for 10 minutes after which 2 μL was transferred into a 384-well white proxiplate (Perkin Elmer Cat. #6008289). The SureFire assay reagent mix was prepared by mixing 60 parts Reaction Buffer, 10 parts Activation Buffer, 1 part Donor Beads, 1 part Acceptor Beads (Perkin Elmer Cat. #TGRES10K). 3.5 μL/well of this reagent mix was manually added to the proxiplate with a multichannel pipettor. Plates were spun down at 1000 rpm for 2 minutes, followed by light-protected incubation at room temperature for 2 hours. The plates were read on the Alpha-technology compatible Envision multilabel plate reader using AlphaScreen protocol according to manufacturer's specifications. The agonist effect of compounds was expressed as 100×(average sample-average blank)/(average total−average blank) where sample is the luminescence activity in the presence of test compound, blank is equal to the luminescence activity in the presence of DMSO control and the total is signal induced by 50 μM linolenic acid as reference compound. Activation data for the test compound over a range of concentrations was plotted as percentage activation of the test compound (100%=maximum response). After correcting for background, EC50 values were determined. The EC50 is defined as the concentration of test compound which produces 50% of the maximal response and was quantified using the 4 parameter logistic equation to fit the data.
The human and mouse GPR120-mediated intracellular phosphorylated ERK assays were also established using CHO-K1 cells stably transfected with the short form of human or mouse GPR120 receptor. […]

Sequence of human GPR120 (Q5NUL3 whole entry): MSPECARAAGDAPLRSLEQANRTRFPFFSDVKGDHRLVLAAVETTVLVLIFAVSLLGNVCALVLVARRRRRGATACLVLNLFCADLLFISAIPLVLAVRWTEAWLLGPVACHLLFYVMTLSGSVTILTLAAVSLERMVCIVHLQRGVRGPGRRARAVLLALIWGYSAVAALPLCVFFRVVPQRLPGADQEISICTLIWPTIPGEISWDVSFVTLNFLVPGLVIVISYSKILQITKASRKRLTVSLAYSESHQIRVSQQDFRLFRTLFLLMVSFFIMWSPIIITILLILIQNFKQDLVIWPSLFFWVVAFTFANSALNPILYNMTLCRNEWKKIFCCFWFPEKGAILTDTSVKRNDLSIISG

Compound | pEC50
O=C(O)CCCC12CCC(OCc3ccccc3-c3ccccc3)(CC1)C2 [Example 48, 4-(4-(biphenyl-2-ylmethoxy)bicyclo[2.2.1]heptan-1-yl) butanoic acid] | 6.49
COc1cc(Cl)ccc1COC12CCC(CCCC(=O)O)(CC1)C2 [Example 40, 4-(4-(4-chloro-2-methoxybenzyl-oxy)bicyclo [2.2.1]heptan-1-yl)butanoic acid] | 5.64
O=C(O)CCCC12CCC(OCc3cccc(Oc4ccc(F)cc4)c3)(CC1)C2 [Example 17, 4-(4-(3-(4-fluorophenoxy)benzyloxy)bicyclo[2.2.1]-1-yl)butanoic acid] | 6.60
COc1ccc(OC(F)(F)F)cc1COC12CCC(CCCC(=O)O)(CC1)C2 [Example 29, 4-(4-(2-methoxy-5-(trifluorometh-oxy)benzyloxy)bicyclo[2.2.1]heptan-1-yl) butanoic acid] | 5.29
O=C(O)CCOC12CCC(OCc3cc(F)cc(Oc4ccccc4)c3)(CC1)C2 [Example 79, 3-(4-(3-Fluoro-5-phenoxybenzyloxy)bicyclo[2.2.1]heptan-1-yloxy)propanoic acid] | 6.57
O=C(O)CCCC12CCC(OCc3cc(F)cc(OC(F)(F)F)c3)(CC1)C2 [Example 28, 4-(4-(3-fluoro-5-(trifluorometh-oxy)benzyloxy)bicyclo[2.2.1]heptan-1-yl) butanoic acid] | 6.41
O=C(O)C1CC1CC12CCC(OCc3cc(F)cc(Oc4ccccc4)c3)(CC1)C2 (racemic) [Example 91, 2-((4-((3-Fluoro-5-phenoxybenzyl)oxy)bicyclo[2.2.1]heptan-1-yl)methyl)cyclopropanecarboxylic acid] | 6.55
CC(C)Oc1ccccc1COC12CCC(CCCC(=O)O)(CC1)C2 [Example 36, 4-(4-(2-isopropoxy-benzyloxy)bicyclo [2.2.1]heptan-1-yl)butanoic acid] | 5.81
O=C(O)CCCC12CCC(OCc3cc(F)cc(C(F)(F)F)c3)(CC1)C2 [Example 25, 4-(4-(3-fluoro-5-(trifluoromethyl)benzyloxy)bicyclo[2.2.1]heptan-1-yl) butanoic acid] | 6.19
3-(4-(3-fluoro-5-(4- fluorophenoxy)benzyloxy) bicyclo[2.2.1]heptan-1-yloxy) propanoic acid [Example 81] | 6.46
O=C(O)CCCC12CCC(OCc3csc4ccc(Cl)cc34)(CC1)C2 [Example 30, 4-(4-((5-chlorobenzo[b]thiophen-3-yl)methoxy)bicyclo[2.2.1]heptan-1-yl) butanoic acid] | 6.07
Cc1cc(COC23CCC(CCCC(=O)O)(CC2)C3)ccc1F [Example 13, 4-(4-(4-fluoro-3-methylbenzyl-oxy)bicyclo [2.2.1]heptan-1-yl)butanoic acid] | 5.12
O=C(O)CCCC12CCC(OCc3cc(Cl)ccc3F)(CC1)C2 [Example 52, 4-(4-(5-chloro-2-fluorobenzyl-oxy)bicyclo [2.2.1]heptan-1-yl)butanoic acid] | 6.16
Cc1cc(COC23CCC(CCCC(=O)O)(CC2)C3)cc(OC(F)(F)F)c1 [Example 7, 4-(4-(3-methyl-5-(trifluorometh-oxy)benzyloxy)bicyclo[2.2.1]heptan-1-yl) butanoic acid] | 6.64
O=C(O)CCC12CCC(OCCc3ccccc3Oc3ccccc3)(CC1)C2 [Example 86, 3-(4-(2-Phenoxyphenethoxy)bicyclo[2.2.1]heptan-1-yl)propanoic acid] | 5.16
O=C(O)CCCC12CCC(OCc3cccc(Oc4ccccc4F)c3)(CC1)C2 [Example 16, 4-(4-(3-(2-fluorophenoxy)benzyloxy)bicyclo[2.2.1]heptan-1-yl) butanoic acid] | 6.19

Compound | pEC50
3-(4-(2-phenoxybenzyloxy) bicyclo[2.2.1]heptan-1-yloxy) propanoic acid [Example 80] | 5.56
Cc1nc(-c2cccc(COC34CCC(CCCC(=O)O)(CC3)C4)c2)no1 [Example 37, 4-(4-(3-(5-methyl-1,2,4-oxadiazol-3-yl)benzyloxy)bicyclo[2.2.1]heptan-1-yl) butanoic acid] | 5.51
CC(C)Oc1ccc(Cl)cc1COC12CCC(CCCC(=O)O)(CC1)C2 [Example 5, 4-(4-(5-chloro-2-isopropoxy-benzyloxy)bicyclo[2.2.1]heptan-1-yl) butanoic acid] | 5.99
CC1(C)Cc2cc(Cl)cc(COC34CCC(CCCC(=O)O)(CC3)C4)c2O1 [Example 3, 4-(4-((5-chloro-2,2-dimethyl-2,3-dihydro-benzofuran-7-yl)methoxy)bicyclo[2.2.1]heptan-1-yl) butanoic acid] | 6.28
O=C(O)CCCC12CCC(OCc3c(F)ccc(F)c3F)(CC1)C2 [Example 47, 4-(4-(2,3,6-trifluorobenzyl-oxy)bicyclo [2.2.1]heptan-1-yl)butanoic acid] | 5.11
CC(C)Oc1cccc(COC23CCC(CCCC(=O)O)(CC2)C3)c1 [Example 38, 4-(4-(3-isopropoxy-benzyloxy)bicyclo [2.2.1]heptan-1-yl)butanoic acid] | 5.77
COC(=O)CCCC12CCC(OCc3cc(F)ccc3-c3ccc(C)cc3)(CC1)C2 [Example 66, methyl 4-(4-((4-fluoro-4′-methyl-[1,1′-biphenyl]-2-yl)methoxy)bicyclo [2.2.1]heptan-1-yl)butanoic] | 6.43
CC(C)Oc1cc(F)cc(COC23CCC(CCCC(=O)O)(CC2)C3)c1 [Example 35, 4-(4-(3-fluoro-5-isopropoxybenzyl-oxy)bicyclo [2.2.1]heptan-1-yl)butanoic acid] | 6.36
OCC(O)CCC12CCC(OCc3cc(F)cc(Oc4ccccc4)c3)(CC1)C2 (single isomer, unassigned) [Example 96, 4-(4-((3-Fluoro-5-phenoxybenzyl)oxy)bicyclo[2.2.1]heptan-1-yl)butane-1,2-diol] | 6.42
CNC(=O)CCCC12CCC(OCc3cccc(Oc4ccccc4)c3)(CC1)C2 [Example 84, N-Methyl-4-(4-((3-phenoxybenzyl)oxy)bicyclo[2.2.1]heptan-1-yl)butanamide] | 5.52
O=C(CCCC12CCC(OCc3cccc(Oc4ccccc4)c3)(CC1)C2)N1CC(O)C1 [Example 85, 1-(3-Hydroxyazetidin-1-yl)-4-(4-((3-phenoxybenzyl)oxy)bicyclo[2.2.1]heptan-1-yl)butan-1-one] | 5.62
O=C(O)COCC12CCC(OCc3cc(F)cc(Oc4ccc(F)cc4)c3)(CC1)C2 [Example 75, 2-((4-(3-fluoro-5-(4-fluorophenoxy)benzyloxy)bicyclo[2.2.1]heptan-1-yl)methoxy)acetic acid] | 5.73
CC1(C)Cc2cc(Cl)cc(COC34CCC(CCC(=O)O)(CC3)C4)c2O1 [Example 71, 3-(4-((5-Chloro-2,2-dimethyl-2,3-dihydrobenzofuran-7-yl)methoxy)bicyclo[2.2.1]heptan-1-yl)propanoic acid] | 5.18
O=C(O)CCCC12CCC(OCc3cccc(C(F)(F)F)c3F)(CC1)C2 [Example 46, 4-(4-(2-fluoro-3-(trifluoromethyl)benzyloxy)bicyclo[2.2.1]heptan-1-yl) butanoic acid] | 6.54
O=C(O)CCCC12CCC(OCc3ccsc3Br)(CC1)C2 [Example 54, 4-(4-((2-bromo-thiophen-3-yl)methoxy)bicyclo [2.2.1]heptan-1-yl)butanoic acid] | 5.77
COc1cc(Cl)cc(COC23CCC(CCCC(=O)O)(CC2)C3)c1 [Example 31, 4-(4-(3-chloro-5-methoxybenzyl-oxy)bicyclo [2.2.1]heptan-1-yl)butanoic acid] | 6.05
